Patent US20060115815A1 (priority 2002, published 2006)

These compounds were tested on mutant HIV-1 with I84V/L90M mutations in the protease gene (assay: not given). Details: I84V/L90M mutant.
Assay type: cell-based

Structure (SMILES) | I84V/L90M fold change
COc1ccc(S(=O)(=O)N(CC(C)C)CC(O)C(Cc2ccc(OCc3ccccc3)cc2)NC(=O)OC2COC3OCCC23)cc1 (centres unmarked) | — (≦3)
COc1ccc(S(=O)(=O)N(CCN(C)C)CC(O)C(Cc2ccc(OCc3ccccc3)cc2)NC(=O)OC2COC3OCCC23)cc1 (centres unmarked) | — (≦3)
COc1ccc(S(=O)(=O)N(CCN2CCOCC2)CC(O)C(Cc2ccc(OCP(=O)(O)O)cc2)NC(=O)OC2COC3OCCC23)cc1 (centres unmarked) | + (>3 to ≦10)
COc1ccc(S(=O)(=O)N(CCN2CCOCC2)CC(O)C(Cc2ccc(OCP(=O)(OCc3ccccc3)OCc3ccccc3)cc2)NC(=O)OC2COC3OCCC23)cc1 (centres unmarked) | + (>3 to ≦10)
COc1ccc(S(=O)(=O)N(Cc2ccccc2)CC(O)C(Cc2ccccc2)NC(=O)OC2COC3OCCC23)cc1 (centres unmarked) | +++ (>30)
COc1ccc(S(=O)(=O)N(CC(O)C(Cc2ccccc2)NC(=O)OC2COC3OCCC23)CC(C)(C)CO)cc1 (centres unmarked) | +++ (>30)
Cc1cccc(C)c1OCC(=O)NC(Cc1ccc(OCP(=O)(O)O)cc1)C(O)CN(CC(C)C)S(=O)(=O)c1ccc(N)cc1 (centres unmarked) | + (>3 to ≦10)
Cc1ccc(C(=O)NC(Cc2ccc(OCP(=O)(O)O)cc2)C(O)CN(CC(C)C)S(=O)(=O)c2ccc(N)cc2)cc1O (centres unmarked) | + (>3 to ≦10)
CC(C)CN(CC(O)C(Cc1ccc(OCP(=O)(OCc2ccccc2)OCc2ccccc2)cc1)NC(=O)OC1COC2OCCC12)S(=O)(=O)c1ccc(F)cc1 (centres unmarked) | + (>3 to ≦10)
CC(C)CN(CC(O)C(Cc1ccc(OCP(=O)(OCc2ccccc2)OCc2ccccc2)cc1)NC(=O)OC1COC2OCCC12)S(=O)(=O)c1ccc(OC(F)(F)F)cc1 (centres unmarked) | + (>3 to ≦10)
CC(C)CN(CC(O)C(Cc1ccccc1)NC(=O)OC1COC2OCCC12)S(=O)(=O)c1ccc(OCP(=O)(OCc2ccccc2)OCc2ccccc2)cc1 (centres unmarked) | +++ (>30)
CC(C)CN(CC(O)C(Cc1ccccc1)NC(=O)OC1COC2OCCC12)S(=O)(=O)c1cccc(O)c1 (centres unmarked) | + (>3 to ≦10)
CC(C)CN(CC(O)C(Cc1ccccc1)NC(=O)OC1COC2OCCC12)S(=O)(=O)c1cccc(OCP(=O)(O)O)c1 (centres unmarked) | + (>3 to ≦10)
CCOP(=O)(COc1cc(S(=O)(=O)N(CC(C)C)CC(O)C(Cc2ccccc2)NC(=O)OC2COC3OCCC23)ccc1OC)OCC (centres unmarked) | + (>3 to ≦10)
CC(C)CN(C[C@@H](O)[C@H](Cc1ccc(OCP(=O)(Oc2ccccc2)Oc2ccccc2)cc1)NC(=O)OC1CCOC1)S(=O)(=O)c1ccc(N)cc1 (some centres unmarked) [NH2, phenol] | — (≦3)
COc1ccc(S(=O)(=O)N(CC(C)C)C[C@@H](O)[C@H](Cc2ccc(OCP(=O)(O)O)cc2)NC(=O)OC2CCOC2)cc1 (some centres unmarked) [OMe, OH] | +++ (>30)
COc1ccc(S(=O)(=O)N(CC(C)C)C[C@@H](O)[C@H](Cc2ccc(OCP(=O)(Oc3ccccc3)Oc3ccccc3)cc2)NC(=O)OC2CCOC2)cc1 (some centres unmarked) [OMe, phenol] | + (>3 to ≦10)

Same assay, conditions: fold difference in EC50, mutant vs. wild type

Structure (SMILES) | I84V/L90M fold change
CCOP(=O)(CN1CC=C(CC(NC(=O)OC2COC3OCCC23)C(O)CN(CC(C)C)S(=O)(=O)c2ccc(OC)cc2)CC1)OCC (centres unmarked) | + (>3 to ≦10)
COc1ccc(S(=O)(=O)N(CC(C)C)CC(O)C(CC2=CCN(CCP(=O)(OCc3ccccc3)OCc3ccccc3)CC2)NC(=O)OC2COC3OCCC23)cc1 (centres unmarked) | + (>3 to ≦10)
CCOP(=O)(CCC1=CCN(CC(NC(=O)OC2COC3OCCC23)C(O)CN(CC(C)C)S(=O)(=O)c2ccc(OC)cc2)CC1)OCC (centres unmarked) | + (>3 to ≦10)
COc1ccc(S(=O)(=O)N(CC(C)C)CC(O)C(CNc2ccc(CP(=O)(O)O)cc2)NC(=O)OC2COC3OCCC23)cc1 (centres unmarked) | + (>3 to ≦10)
CCOP(=O)(Cc1ccc(NCC(NC(=O)OC2COC3OCCC23)C(O)CN(CC(C)C)S(=O)(=O)c2ccc(OC)cc2)cc1)OCC (centres unmarked) | + (>3 to ≦10)
CCOP(=O)(Cc1ccc(N(C)CC(NC(=O)OC2COC3OCCC23)C(O)CN(CC(C)C)S(=O)(=O)c2ccc(OC)cc2)cc1)OCC (centres unmarked) | + (>3 to ≦10)
CCOP(=O)(Cc1ccc2c(c1)CCN(CC(NC(=O)OC1COC3OCCC13)C(O)CN(CC(C)C)S(=O)(=O)c1ccc(OC)cc1)C2)OCC (centres unmarked) | + (>3 to ≦10)
CCOC(=O)C(C)OP(=O)(COc1ccc2c(c1)CCN(CC(NC(=O)OC1COC3OCCC13)C(O)CN(CC(C)C)S(=O)(=O)c1ccc(OC)cc1)C2)Oc1ccccc1 (centres unmarked) | + (>3 to ≦10)
COC(=O)N[C@H](C(=O)N[C@@H](Cc1ccccc1)[C@@H](O)CN(Cc1ccc(-c2ccccn2)cc1)NC(=O)[C@@H](NC(=O)OC)C(C)(C)C)C(C)(C)C [Atazanavir, reference compound] | +++ (>30)
CCCCOC(=O)C(CC)NP(=O)(COc1ccc(CC(NC(=O)OC2COC3OCCC23)C(O)CN(CC(C)C)S(=O)(=O)c2ccc(OC)cc2)cc1)NC(CC)C(=O)OCCCC (centres unmarked) [drawing 655 R1=Aba-Bu R2=Aba-Bu] | + (>3 to ≦10)
CCCCOC(=O)C(CC(C)C)NP(=O)(COc1ccc(CC(NC(=O)OC2COC3OCCC23)C(O)CN(CC(C)C)S(=O)(=O)c2ccc(OC)cc2)cc1)NC(CC(C)C)C(=O)OCCCC (centres unmarked) [drawing 655 R1=Leu-Bu R2=Leu-Bu] | + (>3 to ≦10)

The compounds below were run on wild-type HIV-1 strain IIIB (assay: microbe, parasite or virus in culture). Details: read-out: EC50.
Assay type: cell-based

Structure (SMILES) | EC50 [nM]
CCOP(=O)(CCC1=CCN(CC(NC(=O)OC2COC3OCCC23)C(O)CN(CC(C)C)S(=O)(=O)c2ccc(OC)cc2)CC1)OCC (centres unmarked) | < 50
CCOC(=O)C(C)OP(=O)(COc1ccc(CC(NC(=O)OC2COC3OCCC23)C(O)CN(CC(C)C)S(=O)(=O)c2ccc(OC)cc2)cc1)Oc1cccc(C(=O)O)c1 [drawing 660 R1=OPh-m-COOH R2=(S)Lac-Et] | 50 to 500
CCOC(=O)C(C)OP(=O)(COc1ccc(CC(NC(=O)OC2COC3OCCC23)C(O)CN(CC(C)C)S(=O)(=O)c2ccc(OC)cc2)cc1)Oc1ccccc1OCC [drawing 660 R1=OPh-o-OEt R2=(S)Lac-Et] | < 50
CCOC(=O)C(C)OP(=O)(COc1ccc(CC(NC(=O)OC2COC3OCCC23)C(O)CN(CC(C)C)S(=O)(=O)c2ccc(OC)cc2)cc1)Oc1ccccc1CC(C)C [drawing 660 R1=OPh—o-i-But R2=(S)Lac-Et] | < 50
CCCCc1ccc(OP(=O)(COc2ccc(C[C@H](NC(=O)O[C@H]3CO[C@H]4OCC[C@H]43)[C@H](O)CN(CC(C)C)S(=O)(=O)c3ccc(OC)cc3)cc2)O[C@@H](C)C(=O)OCC)cc1 (stereo partly drawn) [drawing 660 R1=OPh—p-n-But R2=(S)Lac-Et] | < 50
CCCCCCCCc1ccc(OP(=O)(COc2ccc(C[C@H](NC(=O)O[C@H]3CO[C@H]4OCC[C@H]43)[C@H](O)CN(CC(C)C)S(=O)(=O)c3ccc(OC)cc3)cc2)O[C@@H](C)C(=O)OCC)cc1 (stereo partly drawn) [drawing 660 R1=OPh—p-n-Oct R2=(S)Lac-Et] | 50 to 500
CCOC(=O)[C@H](C)OP(=O)(COc1ccc(C[C@H](NC(=O)O[C@H]2CO[C@H]3OCC[C@H]32)[C@H](O)CN(CC(C)C)S(=O)(=O)c2ccc(OC)cc2)cc1)ON1CCCCC1 (stereo partly drawn) [drawing 660 R1=OPip R2=(S)Lac-Et] | 500 to 5000
CCOC(=O)C(C)OP(=O)(COc1ccc(CC(NC(=O)OC2COC3OCCC23)C(O)CN(CC(C)C)S(=O)(=O)c2ccc(OC)cc2)cc1)Oc1ccccc1 (centres unmarked) [drawing 661 R1=OPh R2=Lac-Et] | 50 to 500
CCOC(=O)C(CC)NP(=O)(CCNCc1ccc(C[C@H](NC(=O)O[C@H]2CO[C@H]3OCC[C@H]32)[C@H](O)CN(CC(C)C)S(=O)(=O)c2ccc(OC)cc2)cc1)Oc1ccccc1 (some centres unmarked) [drawing 662 R1=Ph R2=Aba-Et] | 500 to 5000
CCCCOC(=O)C(C)OP(=O)(COc1ccc(C[C@H](NC(=O)O[C@H]2CO[C@H]3OCC[C@H]32)[C@H](O)CN(CC(C)C)S(=O)(=O)c2cccc(N)c2)cc1)Oc1ccccc1 (some centres unmarked) [drawing 764] | 50 to 500
